Source: the supplement of paper PMC11061612

Experiments:
U-698-M [1] = assay: Bliss excess, mean over the matrix (fraction); higher = more synergy; conditions: U-[…], B-Cell Non-Hodgkin's Lymphoma
In short: (§1)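 Cell lines in DMEM/F12 or RPMI with 10% FBS were plated in 1536-well plates, held 24 hours at 37°C, 5% CO2, then given two-drug dose matrices for 72 hours (DMSO typically 0.2%). Viability was read by CellTiter-Glo 2.0 luminescence and scaled as inhibition from 0 (vehicle wells) to 1 (blank wells). Combination Emax is the second-highest inhibition in the matrix; Bliss excess is observed combination effect minus expected EA + EB − EA·EB, EA and EB being single-agent effects.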

U-698-M [2] = assay: combination Emax (second highest fraction inhibited in the dose matrix, 72 h); higher = more inhibition; conditions: B-Cell Non-Hodgkin's Lymphoma
In short: as §1

[3] = first compound max 1 µM, partner max 1 µM, 7x7
[4] = first compound max 1 µM, partner max 3 µM, 7x7
[5] = first compound max 1 µM, partner max 10 µM, 7x7
[6] = first compound max 10 µM, partner max 10 µM, 7x7
[7] = first compound max 1 µM, partner max 0.3 µM, 7x7
[8] = first compound max 10 µM, partner max 1 µM, 7x7
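For Bliss excess, mean over the matrix in this document: after 72 h of two-drug dosing.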

CN(C)CCCOc1ccc(-c2ccc3ncc4c(c3c2)n(C2CCOCC2)c(=O)n4C)cn1 [AZD0156] + CCN(CCO)CCCOc1ccc2c(Nc3cc(CC(=O)Nc4cccc(F)c4)[nH]n3)ncnc2c1 [AZD2811]
Bliss excess (U-698-M [1]; [3]): -0.014 | combination Emax (U-698-M [2]; [3]): 0.168

C=CCn1c(=O)c2cnc(Nc3ccc(N4CCN(C)CC4)cc3)nc2n1-c1cccc(C(C)(C)O)n1 [AZD1775] + CCc1c2c(nc3ccc(O)cc13)-c1cc3c(c(=O)n1C2)COC(=O)[C@]3(O)CC [SN-38]
Bliss excess (U-698-M [1]; first compound max 1 µM, partner max 0.3 µM): 0.0364 | combination Emax (U-698-M [2]; first compound max 1 µM, partner max 0.3 µM, may be a limit of the assay): 1

CN(CCO)CC[C@H](CSc1ccccc1)Nc1ccc(S(=O)(=O)NC(=O)c2ccc(N3CCC([C@@H](O)c4ccccc4-c4ccc(Cl)cc4)CC3)cc2)cc1S(=O)(=O)C(F)(F)F [AZD4320] + C1CN(CCC1(C(=O)N[C@@H](CCO)C2=CC=C(C=C2)Cl)N)C3=NC=NC4=C3C=CN4 [Capivasertib]
Bliss excess (U-698-M [1]; [4]): 0.0056 | combination Emax (U-698-M [2]; [4]): 0.272

COc1cccc(OCCCN)c1-c1cc(Nc2cnc(C#N)cn2)n[nH]1 [Prexasertib] + C[C@@H]1COCCN1C2=NC(=NC(=C2)C3(CC3)[S@](=N)(=O)C)C4=C5C=CNC5=NC=C4 [AZD6738]
Bliss excess (U-698-M [1]; [5]): -0.0348 | combination Emax (U-698-M [2]; [5]): 0.996

Cc1cc2ncnn2cc1Nc1ncc2c(n1)n(C1CCOCC1)c(=O)n2C [AZD7648] + C[C@@H]1COCCN1C2=NC(=NC(=C2)C3(CC3)[S@](=N)(=O)C)C4=C5C=CNC5=NC=C4 [AZD6738]
Bliss excess (U-698-M [1]; [6]): -0.0006 | combination Emax (U-698-M [2]; [6]): 0.939

Cc1c2c(nn1C)CSCc1cc(n(C)n1)CSc1cc(c3ccccc3c1)OCCCc1c(C(=O)O)n(C)c3c-2c(Cl)ccc13 [AZD5991] + Nc1ccn([C@@H]2O[C@H](CO)[C@@H](O)C2(F)F)c(=O)n1 [Gemcitabine]
Bliss excess (U-698-M [1]; [7]): 0.0211 | combination Emax (U-698-M [2]; [7]): 0.966

C[C@@H](Nc1cc(F)cc(F)c1)c1cc(C(=O)N(C)C)cc2c(=O)cc(N3CCOCC3)oc12 [AZD8186] + C1CN(CCC1(C(=O)N[C@@H](CCO)C2=CC=C(C=C2)Cl)N)C3=NC=NC4=C3C=CN4 [AZD5363]
Bliss excess (U-698-M [1]; [6]): -0.0592 | combination Emax (U-698-M [2]; [6]): 0.349

Cn1cnc2c(F)c(Nc3ccc(Br)cc3Cl)c(C(=O)NOCCO)cc21 [Selumetinib] + C[C@@H]1COCCN1C2=NC(=NC(=C2)C3(CC3)[S@](=N)(=O)C)C4=C5C=CNC5=NC=C4 [AZD6738]
Bliss excess (U-698-M [1]; [6]): -0.0501 | combination Emax (U-698-M [2]; [6]): 0.766

COc1cccc2c1C(=O)c1c(O)c3c(c(O)c1C2=O)C[C@@](O)(C(=O)CO)C[C@@H]3O[C@H]1C[C@H](N)[C@H](O)[C@H](C)O1 [Doxorubicin] + Cc1cc2ncnn2cc1Nc1ncc2c(n1)n(C1CCOCC1)c(=O)n2C [AZD7648]
Bliss excess (U-698-M [1]; [5]): 0.084 | combination Emax (U-698-M [2]; [5]): 0.909

CN(CCO)CC[C@H](CSc1ccccc1)Nc1ccc(S(=O)(=O)NC(=O)c2ccc(N3CCC([C@@H](O)c4ccccc4-c4ccc(Cl)cc4)CC3)cc2)cc1S(=O)(=O)C(F)(F)F [AZD4320] + C[C@@H](Nc1cc(F)cc(F)c1)c1cc(C(=O)N(C)C)cc2c(=O)cc(N3CCOCC3)oc12 [AZD8186]
Bliss excess (U-698-M [1]; [4]): 0.0074 | combination Emax (U-698-M [2]; [4]): 0.348

Cn1cnc2c(F)c(Nc3ccc(Br)cc3Cl)c(C(=O)NOCCO)cc21 [Selumetinib] + CCN(CCO)CCCOc1ccc2c(Nc3cc(CC(=O)Nc4cccc(F)c4)[nH]n3)ncnc2c1 [AZD2811]
Bliss excess (U-698-M [1]; [8]): 0.0099 | combination Emax (U-698-M [2]; [8]): 0.253

C=CCn1c(=O)c2cnc(Nc3ccc(N4CCN(C)CC4)cc3)nc2n1-c1cccc(C(C)(C)O)n1 [AZD1775] + C[C@@H]1COCCN1C2=NC(=NC(=C2)C3(CC3)[S@](=N)(=O)C)C4=C5C=CNC5=NC=C4 [AZD6738]
Bliss excess (U-698-M [1]; first compound max 1 µM, partner max 10 µM): 0.0479 | combination Emax (U-698-M [2]; first compound max 1 µM, partner max 10 µM, may be a limit of the assay): 1

Cc1c2c(nn1C)CSCc1cc(n(C)n1)CSc1cc(c3ccccc3c1)OCCCc1c(C(=O)O)n(C)c3c-2c(Cl)ccc13 [AZD5991] + CN(C)CCCOc1ccc(-c2ccc3ncc4c(c3c2)n(C2CCOCC2)c(=O)n4C)cn1 [AZD0156]
Bliss excess (U-698-M [1]; [3]): 0.0036 | combination Emax (U-698-M [2]; first compound max 1 µM, partner max 1 µM, 7x7, may be a limit of the assay): 1

Cc1c2c(nn1C)CSCc1cc(n(C)n1)CSc1cc(c3ccccc3c1)OCCCc1c(C(=O)O)n(C)c3c-2c(Cl)ccc13 [AZD5991] + C=CCn1c(=O)c2cnc(Nc3ccc(N4CCN(C)CC4)cc3)nc2n1-c1cccc(C(C)(C)O)n1 [AZD1775]
combination Emax (U-698-M [2]; first compound max 1 µM, partner max 1 µM, may be a limit of the assay): 1
